Assay results published in patent US6774121B1, “Phospholipid prodrugs of anti-proliferative drugs” (D-Pharm, Ltd., priority 1999, dated 2004).

What was measured:
[1] = test system: CEM-MTX (MTX-resistant mutant of CEM, mutation in the RFC); experiment: MTT cell growth inhibition, MTX-resistant CEM-MTX cells (Example 4); format: cell-based, human; conditions: for EC50: 72 hours, MTT assay, read-out: EC50, nMol CEM-MTX
Experimental: A series of methotrexate derivatives were screened for their inhibitory effect on cell growth. Three tumor cell lines were used for this screen: i) human leukemia cell line CCRF-CEM which is MTX-sensitive (herein denoted as CEM), ii) a mutant of CEM cell line which is MTX-resistant due to a mutation in the RFC (herein denoted as CEM-MTX; provided by Dr. Y. Assraf, Technion, Israel), and iii) rat C6 glioma cell line.
(§1) Cells were seeded at a density of 10^4 cells/ml in RPMI medium supplemented with 10% FCS in 96 well plates. The cultured cells were incubated, during their linear growth phase, in the presence and absence of various concentrations of MTX derivatives. The tested compounds were prepared as 1 mM stock in absolute ethanol or DMSO and were diluted into the medium. The highest vehicle presence in the assay was 5% of the vehicle. After 72 hours at 37° C. the cytotoxic effect on the cells was estimated by using the colorimetric MTT assay (Mosmann (1983) J. Immunol Methods 65: 55-63) that measures mitochondrial reductase activity and serves for quantitative assessment of cellular viability. Drug concentration required for inhibiting the growth of 50% of cell population in culture over a 72 hour period incubation, is defined as EC50.
The EC50 values were calculated from dose response curves for each tested compound.

[2] = test system: human leukemia cell line CCRF-CEM (CEM); experiment: MTT cell growth inhibition, CEM cells (Example 4); format: cell-based; conditions: 72 hours, MTT assay; read-out: EC50, nMol CEM
Experimental: as §1, with “A series of methotrexate derivatives were screened for their inhibitory effect on cell growth. Three tumor cell lines were used for this screen: i) human leukemia cell line CCRF-CEM which is MTX-sensitive (herein denoted as CEM), ii) a mutant of CEM cell line which is MTX-resistant due to a mutation in the RFC (herein denoted as CEM-MTX; provided by Dr. […], Technion, Israel), and iii) rat C6 glioma cell line. Cells” for “Cells”, “[…] The EC50 values were calculated from dose response curves” for “Drug concentration required”, “each tested compound.” for “inhibiting the growth of 50% of cell population in culture over a 72 hour period incubation, is defined as EC50.”

[3] = test system: Friend cells (an erythroleukemic cell line); experiment: MTT cytotoxicity, Friend cells (Example 5); format: cell-based; conditions: 72 hour
Experimental: The toxicity of methotrexate derivatives of the invention (DP-MTX) was evaluated in an additional cell-culture system. The doses required to inhibit the growth of cultured Friend cells (an erythroleukemic cell line) by 50%, over a 72 hour period (ED50), were determined using a mitochondrial viability (MTT) endpoint assay.
Friend cells were seeded at a density of 10^4 cells/ml in RPMI medium supplemented with 10% FCS in 96 well plates. The cultured cells were incubated, during their linear growth phase, in the presence and absence of various concentrations of MTX derivatives. After 72 hours at 37° C., cell viability was estimated by using the colorimetric MTT assay.

[4] = test system: rat C6 glioma cell line; experiment: MTT cell growth inhibition, C6 glioma cells (Example 4); format: cell-based; conditions: 72 hours, MTT assay; read-out: EC50, nMol C6 glioma
Experimental: as §1, with “A series of methotrexate derivatives were screened for their inhibitory effect on cell growth. Three tumor cell lines were used for this screen: i) human leukemia cell line CCRF-CEM which is MTX-sensitive (herein denoted as CEM), ii) a mutant of CEM cell line which is MTX-resistant due to a mutation in the RFC (herein denoted as CEM-MTX; provided by Dr. […], Technion, Israel), and iii) rat C6 glioma cell line. Cells” for “Cells”, “[…] The EC50 values were calculated from dose response curves” for “Drug concentration required”, “each tested compound.” for “inhibiting the growth of 50% of cell population in culture over a 72 hour period incubation, is defined as EC50.”

[5] = test system: PLA2; conditions: isoform not stated; read-out: IC50 of known inhibitors of PLA2; cited from earlier work
[6] = test system: L1210; experiment: MTT cytotoxicity, parent L1210 cells (Example 9); format: cell-based; conditions: Mus musculus
[7] = test system: RFC-mediated MTX-resistant cell line (L1210-MTX); experiment: MTT cytotoxicity, L1210-MTX cells (Example 9); format: cell-based; conditions: Mus musculus

SMILES | EC50 [1] [µM] | EC50 [2] [µM] | ED50 [3] [nmol] | EC50 [4] [µM] | other results
CCCCCCCCCCCCCCCCCC(=O)OC[C@H](COP(=O)([O-])OCC[N+](C)(C)C)OC(=O)CCNC(=O)[C@H](CCC(=O)OCCCCCCCCCCCC)NC(=O)c1ccc(N(C)Cc2cnc3nc(N)nc(N)c3n2)cc1 [DP-MTX-128, 1-Stearoyl-2-[3-(γ-dodecylate-α-MTX amido)Propanoyl]-sn-Glycero-3-phosphocholine] | 1.6 | 0.771 | – | – | –
CCCCCCCCCCCCCCCCCC(=O)OC[C@H](COP(=O)([O-])OCC[N+](C)(C)C)OC(=O)CCNC(=O)C(CCC(=O)O)NC(=O)c1ccc(N(C)Cc2cnc3nc(N)nc(N)c3n2)cc1 (stereo partly drawn) [DP-MTX-93, 1-Stearoyl-2-[3-(α-MTX amido)-Propanoyl]-sn-Glycero-3-phosphocholine] | 4.65 | 0.027 | 97.5 | 0.417 | –
CCCCCCCCCCCCCCCCCC(=O)OC[C@H](COP(=O)([O-])OCC[N+](C)(C)C)OC(=O)CCCCCCCNC(=O)C(CCC(=O)O)NC(=O)c1ccc(N(C)Cc2cnc3nc(N)nc(N)c3n2)cc1 (stereo partly drawn) [DP-MTX-142, 1-Stearoyl-2-[8-(α-MTX amido)-Octanoyl]-sn-Glycero-3-phosphocholine] | 11.6 | 6.34 | 3000 | 36 | –
CCCCCCCCCCCCOC(=O)[C@H](CCC(=O)O)NC(=O)c1ccc(N(C)Cc2cnc3nc(N)nc(N)c3n2)cc1 [α-C12H25-MTX, α:-dodecylate-MTX] | 9.42 | 0.088 | – | – | inhibiting the growth of the MTX-resistant cell line, CEM-MTX (in words) [1]: not effective
CC(Cc1ccc(O)c(O)c1)C(C)Cc1ccc(O)c(O)c1 (stereo not drawn) [NDGA] | – | – | – | – | IC50 [5]: 40 µM
CCCCCCCCCCCCCCCCCC(=O)OC[C@H](COP(=O)([O-])OCC[N+](C)(C)C)OC(=O)CCCCCNC(=O)C(CCC(=O)O)NC(=O)c1ccc(N(C)Cc2cnc3nc(N)nc(N)c3n2)cc1 (stereo partly drawn) [DP-MTX-106, 1-Stearoyl-2-[6-(α-MTX amido)-Hexanoyl]-sn-Glycero-3-phosphocholine] | 8.4 | 0.499 | 390 | 3.22 | –
CCN(CC)CCCC(C)Nc1c2ccc(Cl)cc2nc2ccc(OC)cc12 (stereo not drawn) [Quinacrine] | – | – | – | – | IC50 [5]: 390 µM
CC(=O)O[C@H]1C(=O)[C@@]2(C)[C@H]([C@H](OC(=O)c3ccccc3)[C@]3(O)C[C@H](OC(=O)[C@H](O)[C@@H](NC(=O)c4ccccc4)c4ccccc4)C(C)=C1C3(C)C)[C@]1(OC(C)=O)CO[C@@H]1C[C@@H]2O [TAX, Taxol] | – | – | – | – | EC50 [6]: 0.008 µM; EC50 [7]: 0.008 µM
CCCCCCCCCCCCCCCCCC(=O)OC[C@H](COP(=O)([O-])OCC[N+](C)(C)C)OC(=O)CCCCCCCNC(=O)[C@H](CCC(=O)OCCCCCCCCCCCC)NC(=O)c1ccc(N(C)Cc2cnc3nc(N)nc(N)c3n2)cc1 [DP-MTX-127, 1-Stearoyl-2-[8-(γ-dodecylate-α-MTX amido)-Octanoyl]-sn-Glycero-3-phosphocholine] | – | – | – | 0.795 | –
CCCCCCCCCCCCOC(=O)CC[C@H](NC(=O)c1ccc(N(C)Cc2cnc3nc(N)nc(N)c3n2)cc1)C(=O)OCCCCCCCCCCCC [α-C12H25-MTX-γ-C12H25, α-dodecylate-MTX-γ-dodecylate] | 5.09 | 4.86 | – | 0.807 | inhibiting the growth of the MTX-resistant cell line, CEM-MTX (in words) [1]: not effective
CCCCCCCCCCCCCCCCCC(=O)OC[C@H](COP(=O)([O-])OCC[N+](C)(C)C)OC(=O)CCCNC(=O)C(CCC(=O)O)NC(=O)c1ccc(N(C)Cc2cnc3nc(N)nc(N)c3n2)cc1 (stereo partly drawn) [DP-MTX-129, 1-Stearoyl-2-[4-(α-MTX amido)-Butanoyl]-sn-Glycero-3-phosphocholine] | 5.98 | 0.821 | 97.5 | 3.11 | –
CCCCCCCCCCCCOC(=O)CC[C@H](NC(=O)c1ccc(N(C)Cc2cnc3nc(N)nc(N)c3n2)cc1)C(=O)O [γ-C12H25-MTX, γ-dodecylate-MTX] | 4.86 | 0.013 | – | – | inhibiting the growth of the MTX-resistant cell line, CEM-MTX (in words) [1]: not effective
